Measured values: patent US12054494B2, “Compound with anticancer activity” (KYOWA KIRIN CO., LTD., priority 2018, dated 2024)

Each compound was assayed on SU-DHL-4 cells (assay: Inhibitory effect on cell viability (Cell Counting Kit-8)). Conditions: Homo sapiens, 72 hours culture with test compound, concentration showing 90% inhibition rate of cell viability.
Assay type: cell-based
How it was run: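 IC90 corresponds to 90% loss of viability, measured as CCK-8 absorbance at 450 nm (2-3 h colour development). Compounds in 9 dilutions (0.1% DMSO) were applied for 72 h at 37° C to SU-DHL-4 lymphoma cells seeded at 2000/well in RPMI1640/10% FBS after 18-25 h preculture.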

| IC90 | SMILES |
| --- | --- |
| 0.03 nM | CCC(=O)N1c2ccccc2[C@H](Nc2ccc(C(=O)NCC#CC(=O)Nc3ccc(C4=NCc5nnc(C)n5-c5sc(C)c(C)c54)cc3)cc2)C[C@@H]1C [Compound 14g, 4-(((2S,4R)-2-Methyl-1-propionyl-1,2,3,4-tetrahydroquinolin-4-yl)amino)-N-(4-oxo-4-((4-(2,3,9-trimethyl-6H-thieno[3,2-f][1,2,4]triazolo[4,3-a][1,4]diazepin-4-yl)phenyl)amino)but-2-yn-1-yl)benzamide] |
| 1.15 nM | CCC(=O)N1c2ccccc2[C@H](NCc2ccc(C(=O)N3CC(C(=O)Nc4ccc(N[C@@H]5C[C@H](C)N(C(=O)CC)c6ccccc65)cc4)C3)cc2)C[C@@H]1C (relative stereo) [Compound 10g, 1-(4-((((2S*,4R*)-2-Methyl-1-propionyl-1,2,3,4-tetrahydroquinolin-4-yl)amino)methyl)benzoyl)-N-(4-(((2S,4R)-2-methyl-1-propionyl-1,2,3,4-tetrahydroquinolin-4-yl)amino)phenyl)azetidine-3-carboxamide] |
| 3.42 nM | CCC(=O)N1c2ccccc2[C@H](Nc2ccc(-c3cnn(CCNC(=O)N4CCC(N[C@@H]5C[C@H](C)N(C(=O)CC)c6ccccc65)CC4)c3)cc2)C[C@@H]1C (relative stereo) [Compound 10d, 4-(((2S*,4R*)-2-Methyl-1-propionyl-1,2,3,4-tetrahydroquinolin-4-yl)amino)-N-(2-(4-(4-(((2S,4R)-2-methyl-1-propionyl-1,2,3,4-tetrahydroquinolin-4-yl)amino)phenyl)-1H-pyrazol-1-yl)ethyl)piperidine-1-carboxamide] |
| 34.9 nM | CCC(=O)N1c2ccccc2[C@H](NCCCC2CCN(C(=O)Nc3ccc(N[C@@H]4C[C@H](C)N(C(=O)CC)c5ccccc54)cc3)CC2)C[C@@H]1C (relative stereo) [Compound 12d, N-(4-(((2S,4R)-2-Methyl-1-propionyl-1,2,3,4-tetrahydroquinolin-4-yl)amino)phenyl)-4-(3-(((2S*,4R*)-2-methyl-1-propionyl-1,2,3,4-tetrahydroquinolin-4-yl)amino)propyl)piperidine-1-carboxamide] |
| 1.48 nM | CCC(=O)N1c2ccccc2[C@H](Nc2ccc(C(=O)NCCC(=O)Nc3ccc(N[C@@H]4C[C@H](C)N(C(=O)CC)c5ccccc54)nc3)cc2)C[C@@H]1C (relative stereo) [Compound 10o, 4-(((2S,4R)-2-Methyl-1-propionyl-1,2,3,4-tetrahydroquinolin-4-yl)amino)-N-(3-((6-(((2S*,4R*)-2-methyl-1-propionyl-1,2,3,4-tetrahydroquinolin-4-yl)amino)pyridin-3-yl)amino)-3-oxopropyl)benzamide] |
| 0.93 nM | CCC(=O)N1c2ccccc2[C@H](Nc2ccc(NC(=O)CCCC(=O)Nc3ccc(N[C@@H]4C[C@H](C)N(C(=O)CC)c5ccccc54)nc3)cc2)C[C@@H]1C [Compound 10k, N^1-(4-(((2S,4R)-2-Methyl-1-propionyl-1,2,3,4-tetrahydroquinolin-4-yl)amino)phenyl)-N^5-(6-(((2S,4R)-2-methyl-1-propionyl-1,2,3,4-tetrahydroquinolin-4-yl)amino)pyridin-3-yl)glutaramide] |
| 1.45 nM | CCC(=O)N1c2ccccc2[C@H](Nc2ccc(C(=O)NCCC(=O)Nc3ccc(C4=NCc5nnc(C)n5-c5sc(C)c(C)c54)cc3)cc2)C[C@@H]1C [Compound 14m, 4-(((2S,4R)-2-Methyl-1-propionyl-1,2,3,4-tetrahydroquinolin-4-yl)amino)-N-(3-oxo-3-((4-(2,3,9-trimethyl-6H-thieno[3,2-f][1,2,4]triazolo[4,3-a][1,4]diazepin-4-yl)phenyl)amino)propyl)benzamide] |

The remaining lines, values behind:

| SMILES | IC90 |
| --- | --- |
| CCC(=O)N1c2ccccc2[C@H](Nc2ccc(NC(=O)N3CCN(C(=O)c4ccc(N[C@@H]5C[C@H](C)N(C(=O)CC)c6ccccc65)cc4)CC3)cc2)C[C@@H]1C (relative stereo) [Compound 6m, 4-(4-(((2S,4R)-2-Methyl-1-propionyl-1,2,3,4-tetrahydroquinolin-4-yl)amino)benzoyl)-N-(4-(((2S*,4R*)-2-methyl-1-propionyl-1,2,3,4-tetrahydroquinolin-4-yl)amino)phenyl)piperazine-1-carboxamide] | 0.12 nM |
| CCC(=O)N1c2ccccc2[C@H](Nc2ccc(C(=O)N3CC4CC3CN4C(=O)c3ccc(N[C@@H]4C[C@H](C)N(C(=O)CC)c5ccccc54)cc3)cc2)C[C@@H]1C [Compound 1k, 1,1′-{(2S,2′S,4R,4′R)-{[(2,5-Diazabicyclo[2.2.1]heptane-2,5-dicarbonyl)bis(4,1-phenylene)]bis(azanediyl)}bis[2-methyl-3,4-dihydroquinoline-4,1(2H)-diyl]}bis(propan-1-one)] | 0.55 nM |
| CCC(=O)N1c2ccccc2[C@H](Nc2ccc(NC(=O)CCSc3ccc(N[C@@H]4C[C@H](C)N(C(=O)CC)c5ccccc54)cc3)cc2)C[C@@H]1C (relative stereo) [Compound 4e, N-(4-{[(2S*,4R*)-2-Methyl-1-propionyl-1,2,3,4-tetrahydroquinolin-4-yl]amino}phenyl)-3-[(4-{[(2S,4R)-2-methyl-1-propionyl-1,2,3,4-tetrahydroquinolin-4-yl]amino}phenyl)thio]propanamide] | 0.34 nM |
| CCC(=O)N1c2ccccc2[C@H](Nc2ccc(OCCCNC(=O)c3ccc(N[C@@H]4C[C@H](C)N(C(=O)CC)c5ccccc54)cc3)cc2)C[C@@H]1C [Compound 5p, 4-(((2S,4R)-2-Methyl-1-propionyl-1,2,3,4-tetrahydroquinolin-4-yl)amino)-N-(3-(4-(((2S,4R)-2-methyl-1-propionyl-1,2,3,4-tetrahydroquinolin-4-yl)amino)phenoxy)propyl)benzamide] | 2.68 nM |
| CCC(=O)N1c2ccccc2[C@H](Nc2ccc(NC(=O)CCS(=O)(=O)c3ccc(N[C@@H]4C[C@H](C)N(C(=O)CC)c5ccccc54)cc3)cc2)C[C@@H]1C [Compound 5l, N-(4-(((2S,4R)-2-Methyl-1-propionyl-1,2,3,4-tetrahydroquinolin-4-yl)amino)phenyl)-3-((4-(((2S,4R)-2-methyl-1-propionyl-1,2,3,4-tetrahydroquinolin-4-yl)amino)phenyl)sulfonyl)propanamide] | 37 nM |
| CCC(=O)N1c2ccccc2[C@H](Nc2ccc(OCCNC(=O)c3ccc(N[C@@H]4C[C@H](C)N(C(=O)CC)c5ccccc54)cc3)cc2)C[C@@H]1C [Compound 5n, 4-(((2S,4R)-2-Methyl-1-propionyl-1,2,3,4-tetrahydroquinolin-4-yl)amino)-N-(2-(4-(((2S,4R)-2-methyl-1-propionyl-1,2,3,4-tetrahydroquinolin-4-yl)amino)phenoxy)ethyl)benzamide] | 8.83 nM |
| CCC(=O)N1c2ccccc2[C@H](Nc2ccc(SCCNC(=O)c3ccc(N[C@@H]4C[C@H](C)N(C(=O)CC)c5ccccc54)cc3)cc2)C[C@@H]1C [Compound 4f, 4-{[(2S,4R)-2-Methyl-1-propionyl-1,2,3,4-tetrahydroquinolin-4-yl]amino}-N-{2-[(4-{[(2S,4R)-2-methyl-1-propionyl-1,2,3,4-tetrahydroquinolin-4-yl]amino}phenyl)thio]ethyl}benzamide] | 1.19 nM |
